Experimental data reported in ChEMBL document CHEMBL6078701, “Design and synthesis of novel benzoic acid derivatives as striatal-enriched protein tyrosine phosphatase (STEP) inhibitors with neuroprotective properties” (Eur J Med Chem, 2025).
Activity calls are given as the source filed them. The calls are words filed in the database; no cut-off is given here.

Assays:
HT-22 [1] = assay: Induction of apoptosis in glutamate-induced mouse HT-22 cells assessed as reduction in C-caspase 3 activation at 10 to 20 uM incubated for 12 hrs by Western blot analysis; assay type: functional, cell-based; settings: dose 10-20 µM
HT-22 [2] = assay: Induction of apoptosis in glutamate-induced mouse HT-22 cells assessed as early apoptotic cells at 20 uM incubated for 12 hrs by Annexin V/PI staining based flow cytometry analysis (reference value: 1.23 %); assay type: functional
HT-22 [3] = assay: Induction of apoptosis in glutamate-induced mouse HT-22 cells assessed as necrotic cells at 10 uM incubated for 12 hrs by Annexin V/PI staining based flow cytometry analysis (reference value: 3.63 %); assay type: functional
HT-22 [4] = assay: Induction of apoptosis in glutamate-induced mouse HT-22 cells assessed as necrotic cells at 20 uM incubated for 12 hrs by Annexin V/PI staining based flow cytometry analysis (reference value: 3.63 %); assay type: functional
HT-22 [5] = assay: Cytotoxicity against mouse HT-22 cells assessed as effect on cell viability at 40 uM incubated for 48 hrs by CCK-8 assay; assay type: toxicity, cell-based; settings: ht-22, 48 h
[6] = molecular target: T1, Tyrosine-protein phosphatase non-receptor type 1 (Homo sapiens, UniProt P18031); assay: Inhibition of PTP1B (unknown origin)
T1 sequence (P18031 whole entry): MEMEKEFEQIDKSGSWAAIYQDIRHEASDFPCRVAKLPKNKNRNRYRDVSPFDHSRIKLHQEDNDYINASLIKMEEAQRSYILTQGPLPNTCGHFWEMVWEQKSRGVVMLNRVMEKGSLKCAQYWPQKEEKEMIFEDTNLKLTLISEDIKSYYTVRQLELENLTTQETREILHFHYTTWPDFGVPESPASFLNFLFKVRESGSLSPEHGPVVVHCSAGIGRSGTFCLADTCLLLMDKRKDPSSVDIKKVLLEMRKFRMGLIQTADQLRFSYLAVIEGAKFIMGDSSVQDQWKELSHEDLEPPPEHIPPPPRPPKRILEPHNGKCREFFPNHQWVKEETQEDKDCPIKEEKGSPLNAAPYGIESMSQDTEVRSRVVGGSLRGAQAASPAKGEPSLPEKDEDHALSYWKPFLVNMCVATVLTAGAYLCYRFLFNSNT

HT-22 [7] = assay: Neuroprotective activity against glutamate-induced cytotoxicity in mouse HT-22 cells at 10 to 20 uM assessed as cell death measured after 14 hrs by CCK8 assay; assay type: functional, cell-based; settings: dose 10-20 µM
HT-22 [8] = assay: Induction of apoptosis in glutamate-induced mouse HT-22 cells assessed as reduction in C-caspase 3 activation at 10 to 20 uM incubated for 12 hrs by immunofluorescence analysis; assay type: functional, cell-based; settings: dose 10-20 µM
HT-22 [9] = assay: Induction of apoptosis in glutamate-induced mouse HT-22 cells assessed as viable cells at 10 uM incubated for 12 hrs by Annexin V/PI staining based flow cytometry analysis (reference value: 92.6%); assay type: functional; settings: read-out: Activity
[10] = molecular target: T2, Tyrosine-protein phosphatase non-receptor type 2 (Homo sapiens, UniProt P17706); assay: Inhibition of TCPTP (unknown origin)
T2 sequence (P17706 whole entry): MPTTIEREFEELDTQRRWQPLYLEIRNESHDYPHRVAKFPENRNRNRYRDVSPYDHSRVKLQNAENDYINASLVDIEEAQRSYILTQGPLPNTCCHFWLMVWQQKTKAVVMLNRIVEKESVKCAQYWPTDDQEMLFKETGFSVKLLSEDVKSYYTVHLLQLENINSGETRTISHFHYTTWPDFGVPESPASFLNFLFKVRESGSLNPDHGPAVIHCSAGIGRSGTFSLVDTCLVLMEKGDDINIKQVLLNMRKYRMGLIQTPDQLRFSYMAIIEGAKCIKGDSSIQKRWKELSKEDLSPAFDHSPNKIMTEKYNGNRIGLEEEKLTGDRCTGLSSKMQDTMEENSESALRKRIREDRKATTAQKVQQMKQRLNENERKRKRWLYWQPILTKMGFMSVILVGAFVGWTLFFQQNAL

HT-22 [11] = assay: Induction of apoptosis in glutamate-induced mouse HT-22 cells assessed as late apoptotic cells at 10 uM incubated for 12 hrs by Annexin V/PI staining based flow cytometry analysis (reference value: 2.55 %); assay type: functional
[12] = molecular target: T3, Tyrosine-protein phosphatase non-receptor type 22 (Homo sapiens, UniProt Q9Y2R2); assay: Inhibition of LYP (unknown origin)
T3 sequence (Q9Y2R2 whole entry): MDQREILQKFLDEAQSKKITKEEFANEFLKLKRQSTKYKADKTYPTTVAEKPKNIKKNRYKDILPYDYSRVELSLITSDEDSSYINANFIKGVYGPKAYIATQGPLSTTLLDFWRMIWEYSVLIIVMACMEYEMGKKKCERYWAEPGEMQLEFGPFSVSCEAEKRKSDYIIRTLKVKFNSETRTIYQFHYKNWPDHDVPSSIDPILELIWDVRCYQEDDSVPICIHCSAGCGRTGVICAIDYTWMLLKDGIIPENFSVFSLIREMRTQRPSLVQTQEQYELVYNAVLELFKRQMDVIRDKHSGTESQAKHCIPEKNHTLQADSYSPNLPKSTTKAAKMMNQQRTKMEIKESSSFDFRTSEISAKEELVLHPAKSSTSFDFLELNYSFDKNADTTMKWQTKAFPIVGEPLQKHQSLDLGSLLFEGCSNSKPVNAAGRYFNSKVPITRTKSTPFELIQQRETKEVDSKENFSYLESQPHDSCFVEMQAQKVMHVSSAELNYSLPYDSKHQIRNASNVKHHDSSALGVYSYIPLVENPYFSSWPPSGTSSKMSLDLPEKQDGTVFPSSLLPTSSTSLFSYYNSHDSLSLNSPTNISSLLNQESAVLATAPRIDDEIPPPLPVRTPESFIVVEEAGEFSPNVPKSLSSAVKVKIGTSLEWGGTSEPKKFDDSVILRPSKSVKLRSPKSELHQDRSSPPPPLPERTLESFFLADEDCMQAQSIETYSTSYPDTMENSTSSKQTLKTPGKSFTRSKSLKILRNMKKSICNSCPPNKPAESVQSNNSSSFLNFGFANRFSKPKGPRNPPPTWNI

Cortical neurone [13] = assay: Neuroprotective activity against OGD/R induced C57BL/6J mouse Primary cortical neuron assessed as decrease in BAX expression at 10 to 20 uM incubated for 12 hrs by immunofluorescence analysis; assay type: functional, cell-based; settings: dose 10-20 µM
Cortical neurone [14] = assay: Neuroprotective activity against OGD/R induced C57BL/6J mouse Primary cortical neuron assessed as alleviation in neuronal apoptosis at 10 to 20 uM incubated for 12 hrs by TUNEL staining based analysis; assay type: functional, cell-based; settings: dose 10-20 µM
Cortical neurone [15] = assay: Neuroprotective activity against OGD/R induced C57BL/6J mouse Primary cortical neuron assessed as decrease in C-caspase3 expression at 10 to 20 uM incubated for 12 hrs by immunofluorescence analysis; assay type: functional, cell-based; settings: dose 10-20 µM
HT-22 [16] = assay: Induction of apoptosis in glutamate-induced mouse HT-22 cells assessed as late apoptotic cells at 20 uM incubated for 12 hrs by Annexin V/PI staining based flow cytometry analysis (reference value: 2.55 %); assay type: functional
HT-22 [17] = assay: Anti-apoptotic activity in glutamate-induced mouse HT-22 cells assessed as decrease in BAX expression at 10 to 20 uM incubated for 12 hrs by Western blot analysis; assay type: functional, cell-based; settings: dose 10-20 µM
HT-22 [18] = assay: Anti-apoptotic activity in glutamate-induced mouse HT-22 cells assessed as decrease in BAX expression at 10 to 20 uM incubated for 12 hrs by immunofluorescence analysis; assay type: functional, cell-based; settings: dose 10-20 µM
HT-22 [19] = assay: Neuroprotective activity against glutamate-induced cytotoxicity in mouse HT-22 cells at 10 to 20 uM assessed as increase in cell viability measured after 14 hrs by CCK8 assay; assay type: functional, cell-based; settings: dose 10-20 µM
HT-22 [20] = assay: Induction of apoptosis in glutamate-induced mouse HT-22 cells assessed as early apoptotic cells at 10 uM incubated for 12 hrs by Annexin V/PI staining based flow cytometry analysis (reference value: 1.23 %); assay type: functional
Cortical neurone [21] = assay: Neuroprotective activity against OGD/R induced C57BL/6J mouse Primary cortical neuron assessed as alleviation in neuronal apoptosis at 10 to 20 uM incubated for 12 hrs by immunofluorescence analysis; assay type: functional, cell-based; settings: dose 10-20 µM
HT-22 [22] = assay: Effect on STEP expression in mouse HT-22 cells by Western blot analysis; assay type: functional, cell-based
[23] = molecular target: T4, Receptor-type tyrosine-protein phosphatase O (Homo sapiens, UniProt Q16827); assay: Inhibition of PTPRO (unknown origin)
T4 sequence (Q16827 whole entry): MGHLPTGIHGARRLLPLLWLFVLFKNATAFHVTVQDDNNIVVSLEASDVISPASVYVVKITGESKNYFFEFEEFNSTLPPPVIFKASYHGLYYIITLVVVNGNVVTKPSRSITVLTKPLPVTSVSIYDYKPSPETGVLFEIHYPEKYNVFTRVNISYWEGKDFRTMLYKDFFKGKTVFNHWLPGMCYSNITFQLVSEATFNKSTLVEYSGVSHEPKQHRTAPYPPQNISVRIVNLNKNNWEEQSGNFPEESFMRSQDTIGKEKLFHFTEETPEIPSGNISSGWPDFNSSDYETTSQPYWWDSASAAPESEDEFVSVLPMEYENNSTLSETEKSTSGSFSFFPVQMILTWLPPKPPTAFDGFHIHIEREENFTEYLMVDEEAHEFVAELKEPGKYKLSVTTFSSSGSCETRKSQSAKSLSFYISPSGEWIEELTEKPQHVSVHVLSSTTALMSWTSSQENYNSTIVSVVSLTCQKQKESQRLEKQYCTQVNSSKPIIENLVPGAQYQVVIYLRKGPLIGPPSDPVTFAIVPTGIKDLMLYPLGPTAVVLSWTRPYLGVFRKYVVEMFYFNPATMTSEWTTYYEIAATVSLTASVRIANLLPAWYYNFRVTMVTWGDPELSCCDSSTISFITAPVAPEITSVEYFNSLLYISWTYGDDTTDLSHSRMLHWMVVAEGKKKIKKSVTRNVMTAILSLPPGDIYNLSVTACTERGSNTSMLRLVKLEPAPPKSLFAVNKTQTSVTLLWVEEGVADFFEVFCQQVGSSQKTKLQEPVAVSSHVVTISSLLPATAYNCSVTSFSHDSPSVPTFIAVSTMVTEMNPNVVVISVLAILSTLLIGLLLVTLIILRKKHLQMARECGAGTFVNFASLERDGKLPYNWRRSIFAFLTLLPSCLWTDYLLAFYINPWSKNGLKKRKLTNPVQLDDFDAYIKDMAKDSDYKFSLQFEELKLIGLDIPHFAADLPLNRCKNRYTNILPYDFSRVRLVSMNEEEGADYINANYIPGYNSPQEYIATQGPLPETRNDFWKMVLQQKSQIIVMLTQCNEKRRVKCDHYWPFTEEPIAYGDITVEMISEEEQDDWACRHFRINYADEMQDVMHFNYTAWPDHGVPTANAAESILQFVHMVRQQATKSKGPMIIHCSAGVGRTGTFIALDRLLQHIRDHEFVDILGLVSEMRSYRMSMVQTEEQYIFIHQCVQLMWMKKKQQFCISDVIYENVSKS

HT-22 [24] = assay: Anti-apoptotic activity in glutamate-induced mouse HT-22 cells assessed as increase in BCL-2 expression at 10 to 20 uM incubated for 12 hrs by Western blot analysis; assay type: functional, cell-based; settings: dose 10-20 µM
HT-22 [25] = assay: Anti-apoptotic activity in glutamate-induced mouse HT-22 cells assessed as increase in BCL-2 expression at 10 to 20 uM incubated for 12 hrs by immunofluorescence analysis; assay type: functional, cell-based; settings: dose 10-20 µM
HT-22 [26] = assay: […] glutamate-induced ROS accumulation in mouse HT-22 cells assessed as reduction in fluorescent intensity at 10 to 20 uM incubated for 14 hrs by DCFH-DA staining based inverted fluorescence microscopic analysis; assay type: functional, cell-based; settings: dose 10-20 µM
Cortical neurone [27] = assay: Neuroprotective activity against OGD/R induced C57BL/6J mouse Primary cortical neuron assessed as increase in BCL-2 expression at 10 to 20 uM incubated for 12 hrs by immunofluorescence analysis; assay type: functional, cell-based; settings: dose 10-20 µM
HT-22 [28] = assay: Induction of apoptosis in glutamate-induced mouse HT-22 cells assessed as viable cells at 20 uM incubated for 12 hrs by Annexin V/PI staining based flow cytometry analysis (reference value: 92.6%); assay type: functional; settings: read-out: Activity
PC-12 = assay: Cytotoxicity against PC-12 cells at 40 uM incubated for 48 hrs by CCK-8 assay; assay type: toxicity, cell-based; settings: rat, pc-12, 48 h

With `O=C(O)c1ccc(-c2ccc(/C=C3\C(=O)c4cccc([N+](=O)[O-])c4C3=O)o2)c(Cl)c1` the Activity (HT-22 [1]) was “Active”, the Activity (HT-22 [2]) was 2.02% and the Activity (HT-22 [3]) was 0.92%. For the same molecule, the Activity (HT-22 [4]) was 1.26%, the Activity (HT-22 [5]) was “Non-toxic” and the IC50 [6] was 9.01 µM. For the same molecule, the Activity (HT-22 [7]) was “Active”, the Activity (HT-22 [8]) was “Active” and the viability at 10 µM (HT-22 [9]) was 91.9%. For the same molecule, the IC50 [10] was 44 µM, the Activity (HT-22 [11]) was 4.02% and the IC50 [12] was 11.2 µM. For the same molecule, the Activity (Cortical neurone [13]) was “Active”, the Activity (Cortical neurone [14]) was “Active” and the Activity (Cortical neurone [15]) was “Active”. The Activity (HT-22 [16]) was 3.57%, the Activity (HT-22 [17]) was “Active” and the Activity (HT-22 [18]) was “Active”. For the same molecule, the Activity (HT-22 [19]) was “Active”, the Activity (HT-22 [20]) was 3.15% and the Activity (Cortical neurone [21]) was “Active”. The Activity (HT-22 [22]) was “Active”, the IC50 [23] was 14.3 µM and the Activity (HT-22 [24]) was “Active”. For the same molecule, the Activity (HT-22 [25]) was “Active”, the Activity (HT-22 [26]) was “Active” and the Activity (Cortical neurone [27]) was “Active”. The viability at 20 µM (HT-22 [28]) was 93.2% and the Activity (PC-12) was “Non-toxic”.
